Results from PMC6407917, “Identification of GSK3186899/DDD853651 as a Preclinical Development Candidate for the Treatment of Visceral Leishmaniasis” (Journal of Medicinal Chemistry, 2018).
pIC50: −log10 of the molar value.

Tests used:
Test in all cases: biochemical
Set-up in all cases: species or system HEK293/K-562/placenta mixed human extract; Kinobeads chemoproteomic competition binding, quantified by TMT LC-MS/MS, dose response up to 20 uM
ATM = ATM (Homo sapiens, UniProt Q13315)
PDPK1 = PDPK1 (Homo sapiens, UniProt O15530)
PDPK1, sequence (O15530 whole entry): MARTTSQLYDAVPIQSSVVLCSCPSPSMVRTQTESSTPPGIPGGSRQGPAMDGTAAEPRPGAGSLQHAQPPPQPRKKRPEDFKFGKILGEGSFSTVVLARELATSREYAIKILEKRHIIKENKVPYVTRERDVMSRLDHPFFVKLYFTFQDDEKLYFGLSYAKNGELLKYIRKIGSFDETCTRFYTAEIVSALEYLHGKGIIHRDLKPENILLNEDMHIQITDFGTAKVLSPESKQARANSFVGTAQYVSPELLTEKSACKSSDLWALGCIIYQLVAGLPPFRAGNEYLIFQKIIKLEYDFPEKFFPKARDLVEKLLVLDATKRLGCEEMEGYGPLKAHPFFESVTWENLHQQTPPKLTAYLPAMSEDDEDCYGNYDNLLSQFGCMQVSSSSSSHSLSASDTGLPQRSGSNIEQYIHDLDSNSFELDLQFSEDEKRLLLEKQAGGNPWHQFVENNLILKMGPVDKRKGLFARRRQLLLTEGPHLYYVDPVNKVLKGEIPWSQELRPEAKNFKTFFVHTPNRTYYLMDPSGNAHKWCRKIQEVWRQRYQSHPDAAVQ

MET = MET (Homo sapiens, UniProt P08581)
MET, sequence (P08581 whole entry): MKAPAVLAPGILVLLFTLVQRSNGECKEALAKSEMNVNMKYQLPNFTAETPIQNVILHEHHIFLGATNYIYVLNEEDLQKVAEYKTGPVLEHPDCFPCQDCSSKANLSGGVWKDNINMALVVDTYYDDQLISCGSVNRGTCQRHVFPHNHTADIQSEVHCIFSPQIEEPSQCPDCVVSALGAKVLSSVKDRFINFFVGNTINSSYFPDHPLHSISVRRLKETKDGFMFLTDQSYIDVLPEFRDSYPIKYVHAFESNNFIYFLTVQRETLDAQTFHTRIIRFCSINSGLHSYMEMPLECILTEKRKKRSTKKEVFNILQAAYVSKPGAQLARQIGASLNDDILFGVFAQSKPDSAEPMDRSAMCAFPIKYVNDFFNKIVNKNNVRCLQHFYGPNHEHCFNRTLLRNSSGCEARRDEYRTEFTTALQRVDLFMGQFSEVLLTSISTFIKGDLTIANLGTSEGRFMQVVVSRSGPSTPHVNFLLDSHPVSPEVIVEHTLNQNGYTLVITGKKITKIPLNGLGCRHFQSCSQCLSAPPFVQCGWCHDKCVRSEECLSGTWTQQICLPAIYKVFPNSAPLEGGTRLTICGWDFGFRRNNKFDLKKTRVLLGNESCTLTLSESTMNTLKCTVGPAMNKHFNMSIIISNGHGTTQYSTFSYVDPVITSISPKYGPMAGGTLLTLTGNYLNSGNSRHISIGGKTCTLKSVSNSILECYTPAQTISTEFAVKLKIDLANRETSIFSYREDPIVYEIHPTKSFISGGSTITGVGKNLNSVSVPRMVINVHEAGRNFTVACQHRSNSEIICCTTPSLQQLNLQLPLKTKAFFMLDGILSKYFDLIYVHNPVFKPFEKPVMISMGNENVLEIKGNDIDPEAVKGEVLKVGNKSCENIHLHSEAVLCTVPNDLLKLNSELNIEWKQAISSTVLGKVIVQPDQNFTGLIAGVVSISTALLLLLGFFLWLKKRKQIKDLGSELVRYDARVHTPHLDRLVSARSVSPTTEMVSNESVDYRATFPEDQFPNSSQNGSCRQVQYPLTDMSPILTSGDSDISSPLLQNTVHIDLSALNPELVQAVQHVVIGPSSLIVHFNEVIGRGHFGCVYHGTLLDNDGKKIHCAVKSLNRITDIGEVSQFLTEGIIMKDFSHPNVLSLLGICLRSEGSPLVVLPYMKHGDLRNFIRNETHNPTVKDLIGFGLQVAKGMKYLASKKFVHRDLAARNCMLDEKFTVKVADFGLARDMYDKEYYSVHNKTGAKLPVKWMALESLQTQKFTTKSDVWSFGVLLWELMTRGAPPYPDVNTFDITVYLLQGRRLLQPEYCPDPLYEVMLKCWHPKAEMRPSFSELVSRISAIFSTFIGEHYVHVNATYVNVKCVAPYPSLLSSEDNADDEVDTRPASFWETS

PRKAA2 = PRKAA2 (Homo sapiens, UniProt P54646)
EGFR = EGFR (Homo sapiens, UniProt P00533)
EPHA1 = EPHA1 (Homo sapiens, UniProt P21709)
EPHA1, sequence (P21709 whole entry): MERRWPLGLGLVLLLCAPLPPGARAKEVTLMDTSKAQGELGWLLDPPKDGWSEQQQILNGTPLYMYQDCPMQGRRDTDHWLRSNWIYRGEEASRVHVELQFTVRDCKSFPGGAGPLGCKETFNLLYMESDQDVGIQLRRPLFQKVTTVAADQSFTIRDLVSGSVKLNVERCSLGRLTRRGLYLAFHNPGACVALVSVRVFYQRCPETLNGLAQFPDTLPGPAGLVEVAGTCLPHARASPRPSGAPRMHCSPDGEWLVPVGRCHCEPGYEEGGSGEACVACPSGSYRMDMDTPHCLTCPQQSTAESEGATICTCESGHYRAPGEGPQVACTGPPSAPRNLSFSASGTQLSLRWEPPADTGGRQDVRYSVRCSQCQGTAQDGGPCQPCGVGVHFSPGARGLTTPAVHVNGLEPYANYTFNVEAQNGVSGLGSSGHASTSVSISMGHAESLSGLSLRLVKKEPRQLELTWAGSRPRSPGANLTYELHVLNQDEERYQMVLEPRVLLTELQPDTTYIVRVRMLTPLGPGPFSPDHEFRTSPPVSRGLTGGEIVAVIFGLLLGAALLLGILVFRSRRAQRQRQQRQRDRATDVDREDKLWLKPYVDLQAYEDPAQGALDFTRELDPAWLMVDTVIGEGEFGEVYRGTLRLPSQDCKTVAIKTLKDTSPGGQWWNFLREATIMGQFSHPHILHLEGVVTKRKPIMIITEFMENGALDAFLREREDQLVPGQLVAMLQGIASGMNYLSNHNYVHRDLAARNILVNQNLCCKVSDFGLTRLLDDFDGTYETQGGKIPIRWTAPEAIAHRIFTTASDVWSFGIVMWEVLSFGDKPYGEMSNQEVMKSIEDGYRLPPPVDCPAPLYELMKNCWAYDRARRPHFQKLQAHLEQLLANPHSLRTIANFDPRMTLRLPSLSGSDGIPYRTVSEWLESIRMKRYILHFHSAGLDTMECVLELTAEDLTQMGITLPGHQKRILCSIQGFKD

SRC = SRC (Homo sapiens, UniProt P12931)
AZI2 = AZI2 (Homo sapiens, UniProt Q9H6S1)
AZI2, sequence (Q9H6S1 whole entry): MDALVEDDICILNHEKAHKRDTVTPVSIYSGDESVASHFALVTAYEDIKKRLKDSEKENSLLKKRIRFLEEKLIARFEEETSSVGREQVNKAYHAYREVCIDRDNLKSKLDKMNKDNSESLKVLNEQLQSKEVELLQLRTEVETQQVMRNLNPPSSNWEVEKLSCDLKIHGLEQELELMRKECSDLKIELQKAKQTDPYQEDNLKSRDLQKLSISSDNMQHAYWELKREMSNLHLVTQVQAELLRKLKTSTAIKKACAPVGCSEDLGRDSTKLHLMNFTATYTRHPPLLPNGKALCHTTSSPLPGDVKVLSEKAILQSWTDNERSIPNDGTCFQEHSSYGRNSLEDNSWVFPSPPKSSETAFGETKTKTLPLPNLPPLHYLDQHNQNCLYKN

PRKCA = PRKCA (Homo sapiens, UniProt P17252)
STK35 = STK35 (Homo sapiens, UniProt Q8TDR2)
PRKCZ = PRKCZ (Homo sapiens, UniProt Q05513)
TEC = TEC (Homo sapiens, UniProt P42680)
CAMK4 = CAMK4 (Homo sapiens, UniProt Q16566)
MAPK11 = MAPK11 (Homo sapiens, UniProt Q15759)
RPS6KA6 = RPS6KA6 (Homo sapiens, UniProt Q9UK32)
YWHAZ = YWHAZ (Homo sapiens, UniProt P63104)
MAST3 = MAST3 (Homo sapiens, UniProt O60307)
HIPK3 = HIPK3 (Homo sapiens, UniProt Q9H422)
ULK1 = ULK1 (Homo sapiens, UniProt O75385)
ULK1, sequence (O75385 whole entry): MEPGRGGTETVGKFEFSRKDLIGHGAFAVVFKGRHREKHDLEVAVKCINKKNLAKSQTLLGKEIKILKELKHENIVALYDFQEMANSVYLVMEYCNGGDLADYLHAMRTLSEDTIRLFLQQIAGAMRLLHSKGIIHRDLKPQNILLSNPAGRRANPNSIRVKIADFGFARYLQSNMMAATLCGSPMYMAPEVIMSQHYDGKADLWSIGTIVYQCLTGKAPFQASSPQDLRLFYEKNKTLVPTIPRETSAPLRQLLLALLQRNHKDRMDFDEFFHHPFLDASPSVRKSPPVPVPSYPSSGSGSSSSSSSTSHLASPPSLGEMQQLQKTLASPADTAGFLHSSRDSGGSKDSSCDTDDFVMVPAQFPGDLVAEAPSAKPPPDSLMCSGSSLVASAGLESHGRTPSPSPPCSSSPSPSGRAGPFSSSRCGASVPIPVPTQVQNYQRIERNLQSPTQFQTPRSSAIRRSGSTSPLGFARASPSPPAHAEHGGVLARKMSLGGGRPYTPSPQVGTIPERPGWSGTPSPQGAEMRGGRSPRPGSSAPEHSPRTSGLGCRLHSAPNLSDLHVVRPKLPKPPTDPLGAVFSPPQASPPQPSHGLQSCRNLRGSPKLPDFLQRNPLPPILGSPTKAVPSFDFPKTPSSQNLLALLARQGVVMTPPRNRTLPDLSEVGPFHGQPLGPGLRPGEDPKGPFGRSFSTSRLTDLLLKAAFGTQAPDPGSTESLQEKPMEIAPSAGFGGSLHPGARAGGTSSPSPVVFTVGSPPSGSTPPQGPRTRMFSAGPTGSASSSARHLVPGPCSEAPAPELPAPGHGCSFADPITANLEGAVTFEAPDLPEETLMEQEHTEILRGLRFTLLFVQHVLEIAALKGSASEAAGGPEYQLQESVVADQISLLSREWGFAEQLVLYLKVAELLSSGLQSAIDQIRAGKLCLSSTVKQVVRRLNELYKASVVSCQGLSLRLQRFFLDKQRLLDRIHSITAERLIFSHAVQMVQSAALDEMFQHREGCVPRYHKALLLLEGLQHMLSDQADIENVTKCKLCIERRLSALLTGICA

MAP3K11 = MAP3K11 (Homo sapiens, UniProt Q16584)
PRKAA1 = PRKAA1 (Homo sapiens, UniProt Q13131)
PRKAA1, sequence (Q13131 whole entry): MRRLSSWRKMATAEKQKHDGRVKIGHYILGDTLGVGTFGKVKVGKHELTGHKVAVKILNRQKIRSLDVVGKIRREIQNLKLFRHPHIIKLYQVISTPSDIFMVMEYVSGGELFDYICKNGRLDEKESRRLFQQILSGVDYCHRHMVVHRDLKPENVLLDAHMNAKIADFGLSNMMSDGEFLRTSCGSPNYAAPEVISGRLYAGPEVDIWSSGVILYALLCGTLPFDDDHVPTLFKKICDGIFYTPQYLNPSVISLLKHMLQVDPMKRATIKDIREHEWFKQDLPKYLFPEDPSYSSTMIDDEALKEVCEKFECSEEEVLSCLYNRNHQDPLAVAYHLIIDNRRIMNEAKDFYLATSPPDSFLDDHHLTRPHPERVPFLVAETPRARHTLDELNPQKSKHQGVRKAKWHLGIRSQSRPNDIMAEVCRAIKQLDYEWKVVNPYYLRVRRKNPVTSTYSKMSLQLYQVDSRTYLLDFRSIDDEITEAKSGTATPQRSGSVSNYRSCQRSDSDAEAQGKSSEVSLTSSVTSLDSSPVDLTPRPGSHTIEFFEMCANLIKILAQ

Measured: pIC50

COc1ccccc1-c1n[nH]c2nc(N[C@H]3CC[C@H](NS(=O)(=O)CCC(F)(F)F)CC3)nc(OC)c12 [compound 31, 3,3,3-Trifluoro-N-(trans-4-((4-methoxy-3-(2-methoxyphenyl)-1H-pyrazolo[3,4-d]pyrimidin-6-yl)amino)cyclohexyl)propane-1-sulfonamide]
≤ 4.70: all assays above
